Measurements: patent US12338220B2, “Antiviral pyrazolopiridinone compounds” (Novartis AG, priority 2019, dated 2025)
Read-outs that look alike come from different tables or passages of the source.

Legend:
CMV = test: microbe, parasite or virus in culture; format: cell-based
[1] = system: KOS strain of HSV-1 virus; test: HSV-1 qPCR assay; conditions: Human alphaherpesvirus 1, 24 h
CMV-polymerase = CMV-polymerase (Human cytomegalovirus (strain AD169) (HHV-5) (Human herpesvirus 5), UniProt P08546); test: biochemical
VZV Ellen strain = test: VZV qPCR assay; conditions: Human alphaherpesvirus 3, MRC5, 48 h, read-out: Cellular activity against VZV (EC50)
[2] = system: EBV (SNU-719 cells latently infected); test: EBV qPCR assay; conditions: human gammaherpesvirus 4, 72 h, read-out: Cellular activity against EBV (EC50)
HSV-polymerase = HSV-polymerase (Human herpesvirus 1 (strain 17) (HHV-1) (Human herpes simplex virus 1), UniProt P04293); test: biochemical
[3] = system: HCMV-Rluc virus (AD169 pp28-hRluc rUL131); test: CMV Luciferase Assay of Compounds 243-262 in ARPE-19 cells; format: cell-based; conditions: Human betaherpesvirus 5, AD169, ARPE-19, 72 h, read-out: CMV-Luc Cellular EC50 in ARPE-19
Method: CMV Luciferase Assay of Compounds 243-262.
Compounds 243-262 were tested in a luminescence assay as follows.
ARPE-19 cells were maintained in growth medium (DMEM/F12 Glutamax+10 fetal bovine serum (FBS)+PenStrep) and, before reaching full confluence, were transferred to a centrifuge tube and spun for 5 minutes at 1000 rpm. The cells were resuspended in assay medium (DMEM/F12 Glutamax+2% FBS+PenStrep) and counted. Cell density was adjusted to one million cells per milliliter and infected with HCMV-Rluc virus (AD169 pp28-hRluc rUL131; MOI 0.6) in a 50 ml conical tube for 2 hours while shaking. After dilution of the infectious suspension ten-fold (to 100,000 cells per milliliter), 8000 cells are directly plated in 384-well plates pre-spotted with the compound to be tested. The cells were incubated for 72 hours at 37 degrees Celsius. Cells were then placed at room temperature and allowed to equilibrate for 20 minutes before addition of the Renilla-Glo (Promega) reagent. After a 10-minute incubation at room temperature, luminescence was measured on a microplate reader.

[4] = Human betaherpesvirus 5, 72 h, read-out: CMV-Luc Cellular EC50, NN-NHDF cells, MOI 1, 72 hrs
[5] = Human betaherpesvirus 5, read-out: Cellular activity against CMV (EC50), Table 18
[6] = read-out: Cellular activity against HSV-1 (EC50), NN-NHDF cells, MOI 0.01, 24 hrs, qPCR
[7] = read-out: CMV-polymerase Biochemical IC50
[8] = read-out: Cellular activity against HSV-1 (EC50)

Cn1nc(C(=O)NCc2ccc(Cl)cc2)c2c1C(=O)N(CC1(S(=O)(=O)C(C)(C)C(O)CN)CC1)CC2 (single isomer, unassigned) [Example 200, (R)- or (S)-6-((1-((4-Amino-3-hydroxy-2-methylbutan-2-yl)sulfonyl)cyclopropyl)methyl)-N-(4-chlorobenzyl)-1-methyl-7-oxo-4,5,6,7-tetrahydro-1H-pyrazolo[3,4-c]pyridine-3-carboxamide]
EC50 (CMV; [4]): 0.005 µM
EC50 (CMV; [5]): 0.005 µM
EC50 [1, 6]: 0.016 µM

Cn1nc(C(=O)NCc2ccc(C#N)cc2)c2c1C(=O)N(CC1(S(=O)(=O)C(C)(C)[C@H](O)CO)CC1)CC2 [Example 193, (R)-N-(4-Cyanobenzyl)-6-((1-((3,4-dihydroxy-2-methylbutan-2-yl)sulfonyl)cyclopropyl)methyl)-1-methyl-7-oxo-4,5,6,7-tetrahydro-1H-pyrazolo[3,4-c]pyridine-3-carboxamide]
IC50 (CMV-polymerase; [7]): 0.001 µM
EC50 (CMV; [5]): 0.026 µM
EC50 (VZV Ellen strain): 0.034 µM
EC50 [2]: 0.008 µM
EC50 [1, 6]: 0.058 µM

CC(C)(CO)S(=O)(=O)C1(CN2CCc3c(C(=O)NCc4ccc(Cl)cc4)nn(CCO)c3C2=O)CC1 [Example 221, N-(4-chlorobenzyl)-6-((1-((1-hydroxy-2-methylpropan-2-yl)sulfonyl)cyclopropyl)methyl)-1-(2-hydroxyethyl)-7-oxo-4,5,6,7-tetrahydro-1H-pyrazolo[3,4-c]pyridine-3-carboxamide]
IC50 (CMV-polymerase; [7]): 0.001 µM
EC50 (CMV; [4]): 0.017 µM
EC50 (CMV; [5]): 0.017 µM
EC50 [1, 6]: 0.01 µM

Cn1nc(C(=O)NCc2ccc(Cl)cc2)c2c1C(=O)N(CC1(S(=O)(=O)C3CC3)CC1)CC2 [Example 4, N-(4-Chlorobenzyl)-6-((1-(cyclopropylsulfonyl)cyclopropyl)methyl)-1-methyl-7-oxo-4,5,6,7-tetrahydro-1H-pyrazolo[3,4-c]pyridine-3-carboxamide]
IC50 (CMV-polymerase; [7]): 0.002 µM
EC50 (CMV; [4]): 0.023 µM
EC50 (CMV; [5]): 0.023 µM
EC50 (VZV Ellen strain): 0.008 µM
EC50 [1, 6]: 0.064 µM

Cn1nc(C(=O)NCc2ccc(Cl)cc2)c2c1C(=O)N(CC1(S(=O)(=O)C(C)(CO)CO)CC1)CC2 [Example 175, N-(4-chlorobenzyl)-6-((1-((1,3-dihydroxy-2-methylpropan-2-yl)sulfonyl)cyclopropyl)methyl)-1-methyl-7-oxo-4,5,6,7-tetrahydro-1H-pyrazolo[3,4-c]pyridine-3-carboxamide]
IC50 (CMV-polymerase; CMV-polymerase Biochemical IC50): 0.003 µM
EC50 (CMV; [4]): 0.026 µM
EC50 (CMV; [5]): 0.026 µM
EC50 (VZV Ellen strain): 0.034 µM
EC50 [2]: 0.008 µM
EC50 [1, 6]: 0.058 µM

Cn1nc(C(=O)NCc2ccc(C#N)cc2)c2c1C(=O)N(CC1(S(=O)(=O)C(C)(C)COCCN)CC1)CC2 [Example 92, 6-((1-((1-(2-Aminoethoxy)-2-methylpropan-2-yl)sulfonyl)cyclopropyl)methyl)-N-(4-cyanobenzyl)-1-methyl-7-oxo-4,5,6,7-tetrahydro-1H-pyrazolo[3,4-c]pyridine-3-carboxamide]
IC50 (CMV-polymerase; [7]): 0.001 µM
EC50 (CMV; [4]): 0.012 µM
EC50 (CMV; [5]): 0.012 µM
IC50 (HSV-polymerase): 0.03 µM
EC50 [1, 6]: 0.03 µM

CC1(S(=O)(=O)C2(CN3CCc4c(C(=O)NCc5ccc(C#N)cc5)nn(CCO)c4C3=O)CC2)CC1 [Example 217, N-(4-Cyanobenzyl)-1-(2-hydroxyethyl)-6-((1-((1-methylcyclopropyl)sulfonyl)cyclopropyl)methyl)-7-oxo-4,5,6,7-tetrahydro-1H-pyrazolo[3,4-c]pyridine-3-carboxamide]
IC50 (CMV-polymerase; [7]): 0.001 µM
EC50 (CMV; [4]): 0.029 µM
EC50 (CMV; [5]): 0.029 µM
EC50 [1, 6]: 0.036 µM

Cn1nc(C(=O)NCc2ccc(C#N)cc2)c2c1C(=O)N(CC1(S(=O)(=O)C(C)(CO)CO)CC1)CC2 [Example 176, N-(4-Cyanobenzyl)-6-((1-((1,3-dihydroxy-2-methylpropan-2-yl)sulfonyl)cyclopropyl)methyl)-1-methyl-7-oxo-4,5,6,7-tetrahydro-1H-pyrazolo[3,4-c]pyridine-3-carboxamide]
IC50 (CMV-polymerase; [7]): 0.002 µM
EC50 (CMV; [4]): 0.052 µM
EC50 (CMV; [5]): 0.052 µM
IC50 (HSV-polymerase): 0.039 µM
EC50 (VZV Ellen strain): 0.074 µM
EC50 [2]: 0.014 µM
EC50 [1, 6]: 0.095 µM

Cn1nc(C(=O)NCc2ccc(C#N)cc2)c2c1C(=O)N(CC1(S(=O)(=O)C(C)(C)[C@H](O)CN)CC1)CC2 [Example 198, (R)-6-((1-((4-amino-3-hydroxy-2-methylbutan-2-yl)sulfonyl)cyclopropyl)methyl)-N-(4-cyanobenzyl)-1-methyl-7-oxo-4,5,6,7-tetrahydro-1H-pyrazolo[3,4-c]pyridine-3-carboxamide]
EC50 (CMV; [4]): 0.018 µM
EC50 (CMV; [5]): 0.022 µM
EC50 (VZV Ellen strain): 0.039 µM
EC50 [2]: 0.004 µM
EC50 [1, 8]: 0.05 µM

Cn1nc(C(=O)NCc2ccc(C#N)cc2)c2c1C(=O)N(CC1(S(=O)(=O)C3CC3)CC1)CC2 [Example 3, N-(4-cyanobenzyl)-6-((1-(cyclopropylsulfonyl)cyclopropyl)methyl)-1-methyl-7-oxo-4,5,6,7-tetrahydro-1H-pyrazolo[3,4-c]pyridine-3-carboxamide]
IC50 (CMV-polymerase; [7]): 0.002 µM
EC50 (CMV; [4]): 0.039 µM
EC50 (CMV; [5]): 0.039 µM
EC50 (VZV Ellen strain): 0.011 µM
EC50 [1, 8]: 0.033 µM

CC(C)(O)Cn1nc(C(=O)NCc2ccc(C#N)cc2)c2c1C(=O)N(CC1(S(=O)(=O)C3(CO)CC3)CC1)CC2 [Example 234, N-(4-Cyanobenzyl)-1-(2-hydroxy-2-methylpropyl)-6-((1-((1-(hydroxymethyl)cyclopropyl)sulfonyl)cyclopropyl)methyl)-7-oxo-4,5,6,7-tetrahydro-1H-pyrazolo[3,4-c]pyridine-3-carboxamide]
IC50 (CMV-polymerase; [7]): 0.001 µM
EC50 (CMV; [4]): 0.049 µM
EC50 (CMV; [5]): 0.049 µM
EC50 (VZV Ellen strain): 0.115 µM
EC50 [2]: 0.011 µM
EC50 [1, 6]: 0.083 µM

N#Cc1ccc(CNC(=O)c2nn(CCO)c3c2CCN(CC2(S(=O)(=O)C4CC4)CC2)C3=O)cc1 [Example 216, N-(4-cyanobenzyl)-6-((1-(cyclopropylsulfonyl)cyclopropyl)methyl)-1-(2-hydroxyethyl)-7-oxo-4,5,6,7-tetrahydro-1H-pyrazolo[3,4-c]pyridine-3-carboxamide]
IC50 (CMV-polymerase; [7]): 0.002 µM
EC50 (CMV; [4]): 0.067 µM
EC50 (CMV; [5]): 0.067 µM
EC50 (VZV Ellen strain): 0.109 µM
EC50 [2]: 0.028 µM
EC50 [1, 8]: 0.112 µM

CN(C)C(=O)CCNS(=O)(=O)C1(CN2CCc3c(C(=O)NCc4ccc(C#N)cc4)nn(C)c3C2=O)CC1 [Example 254, N-(4-cyanobenzyl)-6-((1-(N-(3-(dimethylamino)-3-oxopropyl)sulfamoyl)cyclopropyl)methyl)-1-methyl-7-oxo-4,5,6,7-tetrahydro-1H-pyrazolo[3,4-c]pyridine-3-carboxamide]
EC50 [3]: 1 µM
